Patent publication US11840686B2, “Modulation of prekallikrein (PKK) expression” (Ionis Pharmaceuticals, Inc., priority 2013, dated 2023)
pIC50: −log10 of the molar value. Values joined by “and” are separate entries in the source; they are usually repeats but may differ in a detail not shown here. Equal entries are not always repeated. Strand notation (5' to 3'): a small letter for the sugar, then the base; units joined by * are phosphorothioate-linked, units joined directly phosphodiester-linked; [ ] holds rarer units or linkages, { } end groups; capitals alone tell only the bases. e = 2'-O-(2-methoxyethyl) (MOE); k = constrained ethyl (cEt); [5mC] = 5-methylcytosine; d = 2'-deoxy (DNA)

How the values were obtained:
human PKK mRNA [1] = assay: Antisense inhibition of human PKK mRNA in HepaRG cells, 1,000 nM, MOE/deoxy/cEt oligonucleotides (Example 3); assay type: cell-based
Procedure, shortened: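 HepaRG cells at 20,000 per well electroporated with 1,000 nM 16-mer MOE/cEt/deoxy gapmers (phosphorothioate, 5-methylcytosine). After about 24 h, PKK mRNA measured by qRT-PCR with primer probe set RTS3454, normalized to RIBOGREEN total RNA. Reported as percent inhibition versus untreated cells.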

human PKK mRNA [2] = assay: Dose-dependent antisense inhibition of human PKK in HepaRG cells, 0.11-3.00 uM (Example 6); assay type: cell-based; details: for pIC50: 0.11-3.00 μM; for percent inhibition of PKK mRNA, 1.00 μM / percent inhibition of PKK mRNA, 3.00 μM / percent inhibition of PKK mRNA, 0.11 μM / percent inhibition of PKK mRNA, 0.33 μM: electroporation, approx. 16 hours, relative to untreated control cells
Protocol: Cells were plated at a density of 20,000 cells per well and transfected using electroporation with 0.11 μM, 0.33 μM, 1.00 μM, and 3.00 μM concentrations of antisense oligonucleotide. After a treatment period of approximately 16 hours, RNA was isolated from the cells and PKK mRNA levels were measured by quantitative real-time PCR. Human PKK primer probe set RTS3454 was used to measure mRNA levels. PKK mRNA levels were adjusted according to total RNA content, as measured by RIBOGREEN®. The antisense oligonucleotides were tested in a series of experiments that had similar culture conditions.
The half maximal inhibitory concentration (IC50) of each oligonucleotide is also presented.

[3] = HepaRG cells, 1,000 nM antisense oligonucleotide, Table 29
[4] = HepaRG cells, electroporation with 1,000 nM antisense oligonucleotide, approx. 24 hours, PKK mRNA by RT-PCR (RTS3454), relative to untreated control cells, Table 25 experiment
[5] = HepaRG cells, electroporation with 1,000 nM antisense oligonucleotide, approx. 24 hours, PKK mRNA by RT-PCR (RTS3454), relative to untreated control cells, Table 26 experiment
[6] = HepaRG cells, electroporation with 1,000 nM antisense oligonucleotide, approximately 24 hours, primer probe set RTS3454, relative to untreated control cells, experiment of Table 24
[7] = PKK mRNA, HepaRG cells, 1,000 nM antisense oligonucleotide, Table 31
[8] = Table 19, HepaRG cells, electroporation with 1,000 nM antisense oligonucleotide, approximately 24 hours, PKK mRNA by RT-PCR (RTS3454), relative to untreated control cells
[9] = Table 20, HepaRG cells, electroporation with 1,000 nM antisense oligonucleotide, approximately 24 hours, PKK mRNA by RT-PCR (RTS3454), relative to untreated control cells
[10] = Table 21 experiment, HepaRG cells, electroporation with 1,000 nM antisense oligonucleotide, approx. 24 hours, PKK mRNA by RT-PCR (RTS3454), relative to untreated control cells
[11] = Table 22 experiment, HepaRG cells, electroporation with 1,000 nM antisense oligonucleotide, approx. 24 hours, PKK mRNA by RT-PCR (RTS3454), relative to untreated control cells
[12] = Table 30, human PKK mRNA, HepaRG cells, 1,000 nM antisense oligonucleotide

Substance | % inhibition (human PKK mRNA [1]; [3]) | % inhibition (human PKK mRNA [1]; [4]) | % inhibition (human PKK mRNA [1]; [5]) | % inhibition (human PKK mRNA [1]; HepaRG cells, electroporation with 1,000 nM antisense oligonucleotide, approximately 24 hours, primer probe set RTS3454, relative to untreated control cells, experiment of Table 23) | % inhibition (human PKK mRNA [1]; [6]) | % inhibition (human PKK mRNA [1]; [7]) | % inhibition (human PKK mRNA [1]; [8]) | % inhibition (human PKK mRNA [1]; [9]) | % inhibition (human PKK mRNA [1]; [10]) | % inhibition (human PKK mRNA [1]; [11]) | % inhibition (human PKK mRNA [1]; Table 27, HepaRG cells, 1,000 nM antisense oligonucleotide, human PKK mRNA) | % inhibition (human PKK mRNA [1]; Table 28, HepaRG cells, 1,000 nM antisense oligonucleotide, human PKK mRNA) | % inhibition (human PKK mRNA [1]; [12]) | pIC50 (human PKK mRNA [2]) | percent inhibition of PKK mRNA, 1.00 μM (human PKK mRNA [2]) | percent inhibition of PKK mRNA, 3.00 μM (human PKK mRNA [2]) | percent inhibition of PKK mRNA, 0.11 μM (human PKK mRNA [2]) | percent inhibition of PKK mRNA, 0.33 μM (human PKK mRNA [2])
547747 (eT*e[5mC]*kA*d[5mC]*dT*dG*dT*dA*d[5mC]*dT*dA*dG*dT*kT*kT*e[5mC]) [compound 547747] | 64% | 66% | 80% | 83% | 80% | 88% | 95% | 84% | 88% | 91% | 67% | 64% | 64% | 6.40 and 6.52 and 6.30 | 81% and 90% and 72% and 85% | 89% and 92% and 90% and 96% |  | 
548247 (antisense e[5mC]*eG*kA*dT*dT*dT*dT*d[5mC]*d[5mC]*dA*dT*dG*d[5mC]*kA*kT*eA) [compound 548247] |  |  | 56% |  |  |  |  |  |  |  |  |  |  | 6.30 | 62% | 82% | 16% | 50%
548197 (eT*eG*k[5mC]*dT*dT*dG*dG*d[5mC]*dT*dT*d[5mC]*dA*dA*kT*kA*eT; antisense) [compound 548197] |  | 68% |  |  |  |  |  |  |  |  |  |  |  | 6.10 | 51% | 75% | 33% | 37%
548070 (e[5mC]*e[5mC]*k[5mC]*dA*dA*d[5mC]*dA*dG*dT*dT*dG*dG*dT*kA*kT*eA; antisense) [compound 548070] |  |  |  |  | 85% |  |  |  |  |  |  |  |  | 5.96 | 48% | 63% | 26% | 35%
547998 (antisense e[5mC]*eT*kT*dG*dT*dG*dT*d[5mC]*d[5mC]*d[5mC]*dA*dT*dA*k[5mC]*kG*e[5mC]) [compound 547998] |  |  |  |  | 82% |  |  |  |  |  |  |  |  |  | 91% | 91% | 55% | 73%
547807 (eG*e[5mC]*kA*dG*dT*dA*dT*dT*dG*dG*dG*d[5mC]*dA*kT*kT*eT; antisense) [compound 547807] |  |  |  |  |  |  |  |  | 75% |  |  |  |  | 6.40 | 61% | 94% | 26% | 71%
548220 (eG*e[5mC]*kA*dG*dA*dA*dA*dT*d[5mC]*d[5mC]*dT*dG*dT*kG*k[5mC]*eA; antisense) [compound 548220] |  | 69% |  |  |  |  |  |  |  |  |  |  |  | < 5.52 | 0% | 6% | 0% | 0%
547870 (antisense e[5mC]*eT*kA*dA*d[5mC]*d[5mC]*dT*dT*dA*dG*dA*d[5mC]*dA*k[5mC]*kA*eT) [compound 547870] |  |  |  |  |  |  |  | 89% |  | 83% |  |  |  | 6.22 | 80% | 97% | 0% | 44%
548583 (eG*eG*kG*dA*dA*dT*dT*dT*dA*dT*dG*d[5mC]*dT*kG*k[5mC]*e[5mC]; antisense) [compound 548583] | 79% |  |  |  |  |  |  |  |  |  |  |  |  | 6.70 | 93% | 88% | 43% | 46%
548425 (antisense eA*eA*k[5mC]*dA*dG*dT*dA*dT*d[5mC]*dA*d[5mC]*dT*dG*kT*k[5mC]*e[5mC]) [compound 548425] |  |  |  |  |  |  |  |  |  |  |  |  | 90% | 6.70 | 68% | 80% | 41% | 57%
548155 (e[5mC]*eG*kT*dG*d[5mC]*dT*dG*dA*dA*dA*dG*d[5mC]*dG*kG*kG*e[5mC]; antisense) [compound 548155] |  | 76% |  |  |  |  |  |  |  |  |  |  |  | 6.52 | 70% | 81% | 49% | 50%
548147 (e[5mC]*eG*kT*d[5mC]*d[5mC]*dT*dT*dA*dG*dG*dA*dT*dG*k[5mC]*kA*eA; antisense) [compound 548147] |  |  |  |  |  |  | 81% |  |  |  |  |  |  |  | 80% |  | 59% | 94%
548424 (antisense e[5mC]*eA*kG*dT*dA*dT*d[5mC]*dA*d[5mC]*dT*dG*dT*d[5mC]*k[5mC]*kT*eA) [compound 548424] |  |  |  |  |  |  |  |  |  |  |  |  | 90% | 6.52 | 86% | 72% | 17% | 67%
548668 (antisense eG*eG*kG*dA*dG*d[5mC]*dT*dT*dT*d[5mC]*dA*dT*dG*kG*k[5mC]*eT) [compound 548668] |  |  |  |  |  | 68% |  |  |  |  |  |  |  | 6.15 | 61% | 84% | 10% | 30%
548024 (eG*e[5mC]*kT*dG*dT*d[5mC]*dA*dG*d[5mC]*dT*dT*d[5mC]*dA*k[5mC]*k[5mC]*eT; antisense) [compound 548024] |  |  |  |  | 79% |  |  |  |  |  |  |  |  | 6.52 | 84% | 82% | 28% | 57%
548128 (eA*eT*kT*dG*d[5mC]*d[5mC]*dT*dA*dG*dA*d[5mC]*dT*d[5mC]*kT*kG*eG; antisense) [compound 548128] |  |  |  |  |  |  | 55% |  |  |  |  |  |  | 5.96 | 49% | 66% | 14% | 29%
548265 (antisense e[5mC]*e[5mC]*kT*d[5mC]*dT*dT*dG*dA*dT*dT*dT*dG*dG*kG*k[5mC]*eA) [compound 548265] |  |  | 85% |  |  |  |  |  |  |  |  |  |  |  | 78% | 67% | 47% | 69%
548043 (eA*eT*kT*dT*dG*dT*dG*dA*dG*dA*dA*dA*dG*kG*kT*eG; antisense) [compound 548043] |  |  |  |  | 76% |  |  |  |  |  |  |  |  | 6.52 | 90% | 92% | 14% | 60%
547769 (antisense eT*eT*kG*dG*dA*dG*dG*dT*dG*dA*dG*dT*d[5mC]*kT*k[5mC]*eT) [compound 547769] |  |  |  |  |  |  |  |  | 81% |  |  |  |  | 6.22 | 80% | 96% | 12% | 17%
